We go through 37 compounds from patent US20080275029A1, “Compounds for Treating Protein-Kinase Mediated Disorders” (ASTEX THERAPEUTICS LIMITED, priority 2004, published 2008).

Where a name gives a salt, the structure may show the parent alone. Some results are limits rather than exact numbers.

T1 sequence (P31751 with tags, fused parts or gaps limits assumed): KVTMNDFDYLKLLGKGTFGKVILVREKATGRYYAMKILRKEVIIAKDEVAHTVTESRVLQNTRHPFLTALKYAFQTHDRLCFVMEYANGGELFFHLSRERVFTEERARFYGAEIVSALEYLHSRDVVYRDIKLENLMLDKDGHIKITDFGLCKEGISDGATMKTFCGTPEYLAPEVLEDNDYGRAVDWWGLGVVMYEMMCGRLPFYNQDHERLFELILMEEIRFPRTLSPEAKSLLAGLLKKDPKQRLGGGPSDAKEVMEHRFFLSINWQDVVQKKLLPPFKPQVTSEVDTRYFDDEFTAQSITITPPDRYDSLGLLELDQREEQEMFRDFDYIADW

One test concerns the target T1, protein kinase B (PKB), fusion protein PKB-PIF (Homo sapiens, UniProt P31751).
T1 construct: made in house
Nature of the test: Measurement of PKB kinase inhibitory activity (IC50). The format is biochemical.
Conditions: not given
The method, then: The inhibition of protein kinase B (PKB) activity by compounds can be determined essentially as described by Andjelkovic et al. (Mol. Cell. Biol. 19, 5061-5072 (1999)) but using a fusion protein described as PKB-PIF and described in full by Yang et al (Nature Structural Biology 9, 940-944 (2002)). […] A final concentration of 0.6 nM enzyme is used in a buffer that includes 20 mM MOPS pH 7.2, 30 μM ATP/γ^33P-ATP and 25 μM substrate. Compounds are added in DMSO solution to a final DMSO concentration of 2.5%. The reaction is allowed to proceed for 20 minutes before addition of excess orthophosphoric acid to quench activity. The reaction mixture is transferred to a phosphocellulose filter plate where the peptide binds and the unused ATP is washed away. After washing, scintillant is added and the incorporated activity measured by scintillation counting.
The % inhibition of the PKB activity is calculated and plotted in order to determine the concentration of test compound required to inhibit 50% of the PKB activity (IC50).
In turn, `O=c1[nH]cnc2cc(N3CCNCC3)ccc12` [Example 18, 7-piperazin-1-yl-3H-quinazolin-4-one] displayed an IC50 below 10 µM. In turn, `NCCCOc1ccc2c(=O)[nH]cnc2c1` [Example 9, 7-(3-Amino-propoxy)-3H-quinazolin-4-one] registered an IC50 below 10 µM.

As for `O=c1[nH]cnc2cc(NC3CCNC3)ccc12` (stereo not shown) [Example 16, 7-(Pyrrolidin-3-ylamino)-3H-quinazolin-4-one], the IC50 was below 10 µM.

Still in this test, the particulars now being: PKB-PIF activated with PDK1, 30 μM ATP, AKTide-2T substrate, 20 minutes; read-out: IC50 (concentration required to inhibit 50% of the PKB activity).
As to `O=C(NCc1ccc(F)cc1)Nc1ccc2c(=O)[nH]cnc2c1` [Example 6, 1-(4-Fluoro-benzyl)-3-(4-oxo-3,4-dihydro-quinazolin-7-yl)-urea], the IC50 is below 10 µM.

For the compound `N[C@H]1CC[C@H](Nc2ccc3c(=O)[nH]cnc3c2)CC1` [Example 15, 7-(trans-4-Amino-cyclohexylamino)-3H-quinazolin-4-one], the IC50 is below 10 µM. On the same count and under the same terms, the result for `O=c1[nH]cnc2cc(N3CCNC(c4ccccc4)C3)ccc12` (stereo not shown) [Example 25] reads below 50 µM; that for `O=C(NCc1ccccc1)Nc1ccc2c(=O)[nH]cnc2c1` [Example 8, 1-Benzyl-3-(4-oxo-3,4-dihydro-quinazolin-7-yl)-urea], below 10 µM; that for `O=c1[nH]cnc2cc(OCC3(c4ccccc4)CCNCC3)ccc12` [Example 7, 7-(4-Phenyl-piperidin-4-ylmethoxy)-3H-quinazolin-4-one], below 10 µM. The same measure, in the same setting: the result for `Cn1c(=O)[nH]c(=O)c2ccc(N3CCC(CN)(Cc4ccc(Cl)cc4)CC3)cc21` [Example 42, 7-[4-Aminomethyl-4-(4-chloro-benzyl)-piperidin-1-yl]-1-methyl-1H-quinazoline-2,4-dione] reads below 10 µM; that for `NC(c1ccc(Cl)cc1)C1CCN(c2ccc3c(=O)[nH]cnc3c2)CC1` (stereo not shown) [Example 36, 7-{4-[Amino-(4-chloro-phenyl)-methyl]-piperidin-1-yl}-3H-quinazolin-4-one], below 10 µM; that for `O=c1[nH]cnc2cc(NC3CCCNC3)ccc12` (stereo not shown) [Example 20, 7-(Piperidin-3-ylamino)-3H-quinazolin-4-one], below 10 µM. Consider `O=C(NCc1ccc(Cl)cc1)Nc1ccc2c(=O)[nH]cnc2c1` [Example 5, 1-(4-Chloro-benzyl)-3-(4-oxo-3,4-dihydro-quinazolin-7-yl)-urea], for which the IC50 is below 10 µM.

Regarding `NCC[C@H](C(=O)Nc1ccc2c(=O)[nH]cnc2c1)c1ccc(Cl)c(Cl)c1` [Example 28], the IC50 was below 10 µM.

Regarding `Cn1c(=O)[nH]c(=O)c2ccc(OCC3(c4ccc(Cl)cc4)CCNCC3)cc21` [Example 37, 7-[4-(4-Chloro-phenyl)-piperidin-4-ylmethoxy]-1-methyl-1H-quinazoline-2,4-dione], the IC50 was below 10 µM.

With `O=c1[nH]cnc2cc(OCC3(c4ccc(Cl)cc4)CCNCC3)ccc12` [Example 33, 7-[4-(4-Chloro-phenyl)-piperidin-4-ylmethoxy]-3H-quinazolin-4-one], the IC50 was below 10 µM.

For the compound `O=C(Nc1ccc2c(=O)[nH]cnc2c1)C1(c2ccc(Cl)cc2)CCNCC1` [Example 30, 4-(4-Chloro-phenyl)-piperidine-4-carboxylic acid (4-oxo-3,4-dihydro-quinazolin-7-yl)-amide], the IC50 was below 10 µM. Take `NCCCc1ccc2c(=O)[nH]cnc2c1` [Example 14, 7-(3-Amino-propyl)-3H-quinazolin-4-one]: the IC50 was below 10 µM. On to `O=c1[nH]cnc2cc(NCC3(c4ccc(Cl)cc4)CCNCC3)ccc12` [Example 32, 7-{[4-(4-Chloro-phenyl)-piperidin-4-ylmethyl]-amino}-3H-quinazolin-4-one], for which the IC50 was below 10 µM. `N[C@H]1CC[C@H](Nc2ccc3c(=O)[nH]c(=O)[nH]c3c2)CC1` [Example 21, 7-(4-Amino-cyclohexylamino)-1H-quinazoline-2,4-dione]: the IC50 is below 10 µM.

For the compound `Cc1nc2cc(N3CCC(CN)(c4ccc(Cl)cc4)CC3)ccc2c(=O)[nH]1` [Example 35, 7-[4-Aminomethyl-4-(4-chloro-phenyl)-piperidin-1-yl]-2-methyl-3H-quinazolin-4-one], the IC50 is below 10 µM.

For `CNCCC(C(=O)Nc1ccc2c(=O)[nH]cnc2c1)c1ccc(Cl)cc1` (stereo not shown) [Example 2, 2-(4-Chloro-phenyl)-4-methylamino-N-(4-oxo-3,4-dihydro-quinazolin-7-yl)-butyramide], the IC50 is below 10 µM. On to `NC1(c2ccc(Cl)cc2)CCN(c2ccc3c(=O)[nH]cnc3c2)CC1` [Example 40, 7-[4-Amino-4-(4-chloro-phenyl)-piperidin-1-yl]-3H-quinazolin-4-one], for which the IC50 was below 10 µM. Consider `CN1CCN(c2ccc3c(=O)[nH]cnc3c2)CC1` [Example 26, 7-(4-Methyl-piperazin-1-yl)-3H-quinazolin-4-one], for which the IC50 is below 50 µM. On to `O=C(Nc1ccc2c(=O)[nH]cnc2c1)C1(c2ccccc2)CCNCC1` [Example 4, 4-Phenyl-piperidine-4-carboxylic acid (4-oxo-3,4-dihydro-quinazolin-7-yl)-amide], for which the IC50 is below 10 µM. Turning to `NCCC(C(=O)Nc1ccc2c(=O)[nH]cnc2c1)c1ccc(Cl)c(Cl)c1` (stereo not shown) [Example 1, 4-Amino-2-(3,4-dichloro-phenyl)-N-(4-oxo-3,4-dihydro-quinazolin-7-yl)-butyramide], the IC50 is below 10 µM. The same measure, in the same setting: for `CN1CCCN(c2ccc3c(=O)[nH]cnc3c2)CC1` [Example 22, 7-(4-Methyl-[1,4]diazepan-1-yl)-3H-quinazolin-4-one] the value was below 10 µM; for `NC1(Cc2ccc(Cl)cc2)CCN(c2ccc3c(=O)[nH]cnc3c2)CC1` [Example 38, 7-[4-Amino-4-(4-chloro-benzyl)-piperidin-1-yl]-3H-quinazolin-4-one], below 10 µM; for `NCC[C@@H](C(=O)Nc1ccc2c(=O)[nH]cnc2c1)c1ccc(Cl)c(Cl)c1` [Example 29, (R)-4-Amino-2-(3,4-dichloro-phenyl)-N-(4-oxo-3,4-dihydro-quinazolin-7-yl)butyramide], below 10 µM. Turning to `O=c1[nH]cnc2cc(/C=C/C3(c4ccc(Cl)cc4)CCNCC3)ccc12` [Example 39, 7-{2-[4-(4-Chloro-phenyl)-piperidin-4-yl]-vinyl}-3H-quinazolin-4-one dihydrochloride], the IC50 was below 10 µM. In the case of `N[C@H]1CC[C@H](Oc2ccc3c(=O)[nH]cnc3c2)CC1` [Example 31, 7-(4-Amino-cyclohexyloxy)-3H-quinazolin-4-one], the IC50 was below 10 µM.

`CN1CCN(C2CCN(c3ccc4c(=O)[nH]cnc4c3)CC2)CC1` [Example 23, 7-[4-(4-Methyl-piperazin-1-yl)-piperidin-1-yl]-3H-quinazolin-4-one]: the IC50 is below 50 µM. The same measure, in the same setting: the result for `NCC1(c2ccc(Cl)cc2)CCN(c2ccc3c(=O)[nH]cnc3c2)CC1` [Example 27, 7-[4-Aminomethyl-4-(4-chloro-phenyl)-piperidin-1-yl]-3H-quinazolin-4-one] reads below 10 µM; that for `O=c1[nH]cnc2cc(N3CCC(CO)(c4ccc(Cl)cc4)CC3)ccc12` [Example 34, 7-[4-(4-Chloro-phenyl)-4-hydroxymethyl-piperidin-1-yl]-3H-quinazolin-4-one], below 10 µM. Regarding `NC1CCN(c2ccc3c(=O)[nH]cnc3c2)CC1` [Example 17, 7-(4-Amino-piperidin-1-yl)-3H-quinazolin-4-one], the IC50 is below 10 µM. Regarding `NCCC(NC(=O)c1ccc2c(=O)[nH]cnc2c1)c1ccc(Cl)cc1` (stereo not shown) [Example 3, 4-Oxo-3,4-dihydro-quinazoline-7-carboxylic acid[3-amino-1-(4-chloro-phenyl-propyl]-amide hydrochloride], the IC50 was below 10 µM.

`NCC1(Cc2ccc(Cl)cc2)CCN(c2ccc3c(=O)[nH]cnc3c2)CC1` [Example 41, 7-[4-Aminomethyl-4-(4-chloro-benzyl)-piperidin-1-yl]-3H-quinazolin-4-one]: the IC50 is below 10 µM. Consider `O=c1[nH]cnc2cc(N3CCCNCC3)ccc12` [Example 19, 7-[1,4]Diazepan-1-yl-3H-quinazolin-4-one], for which the IC50 is below 10 µM.
